Measurements from ChEMBL document CHEMBL3813647, “Discovery of an Orally Active and Liver-Targeted Prodrug of 5-Fluoro-2'-Deoxyuridine for the Treatment of Hepatocellular Carcinoma” (J Med Chem, 2016).

Tests used:
Liver = assay: Drug uptake in Sprague-Dawley rat liver treated with (S)-Isopropyl 2-(((R)-(((2R,3S,5R)-5-(5-fluoro-2,4-dioxo-3,4-dihydropyrimidin-1(2H)-yl)-3-hydroxytetrahydrofuran-2-yl)methoxy)((2-methylbenzyl)oxy)phosphoryl)amino)propanoate; type: ADME, tissue-based; conditions: in vivo
Plasma = assay: Drug uptake in Sprague-Dawley rat plasma treated with (S)-Isopropyl 2-(((R)-(((2R,3S,5R)-5-(5-fluoro-2,4-dioxo-3,4-dihydropyrimidin-1(2H)-yl)-3-hydroxytetrahydrofuran-2-yl)methoxy)((2-methylbenzyl)oxy)phosphoryl)amino)propanoate; type: ADME, cell-free

Cc1ccccc1C(=O)NCC(=O)O was tested, and the Drug uptake (Liver) was “metabolite_detected” and the Drug uptake (Plasma) was “metabolite_detected”.
